According to US4228292A, “N-Substituted benzothiazolines and benzoxazolines and their use as herbicides and plant growth regulants” (Monsanto Company, priority 1978, dated 1980):

System: soybean plants
Experiment: plant growth regulating activity on soybean plants
Assay type: in vivo, variety Williams
Method: A number of soybean plants, variety Williams, were grown from seeds in plastic pots in the greenhouse for a period of one week at which time the plants are thinned to one plant per pot. When the second trifoliate leaf (three weeks) was fully expanded, the plants were treated with a solution of the active ingredient in acetone and water. Aqueous Tween 20 was used as a surfactant.
When the fifth trifoliate leaf (four to five weeks) was fully expanded, the treated plants were compared with the non-treated control plants and the observations recorded.

SMILES: COC(=N)C(C)n1c(=O)sc2ccccc21 (stereo not shown) [Compound 32]
- plant growth regulant observations (0.112 kg/h): Inhibition of dry weight.

SMILES: COC(=N)C(C)n1c(=O)sc2cc(Br)ccc21 (stereo not shown) [Compound 34]
- plant growth regulant observations (0.112 kg/h): Leaf alteration of new growth.

SMILES: COC(=N)Cn1c(=O)sc2cc(Br)ccc21 [Compound 20]
- plant growth regulant observations (0.112 kg/h): Leaf alteration of new growth.

SMILES: COC(=N)Cn1c(=O)oc2ccccc21 [Compound 35]
- plant growth regulant observations (0.112 kg/h): No response.
- plant growth regulant observations (0.56 kg/h): No response.

SMILES: COC(=N)CCCn1c(=O)sc2ccccc21 [Compound 18]
- plant growth regulant observations (0.112 kg/h): No response.
- plant growth regulant observations (0.56 kg/h): No response.
